# From ChEMBL document CHEMBL3885881, “DrugMatrix”
# Species on record: Rattus norvegicus
# Assay: DrugMatrix - Regimen: Daily Repeat
# Format: toxicity, organism-based, Sprague-Dawley
# Parameters: regimen Daily Repeat, gender Male, age 6-8 weeks
# Conditions: in vivo, iv, vehicle 100 % SALINE; for ABSOLUTE BASOPHIL / ABSOLUTE EOSINOPHIL / ABSOLUTE LYMPHOCYTE / ABSOLUTE MONOCYTE / ABSOLUTE SEGMENTED NEUTROPHIL / BASOPHIL / EOSINOPHIL / ERYTHROCYTE COUNT / HEMATOCRIT / LEUKOCYTE COUNT / LYMPHOCYTE / MEAN CORPUSCULAR HEMOGLOBIN / MEAN CORPUSCULAR HEMOGLOBIN CONCENTRATION / MEAN CORPUSCULAR VOLUME / MONOCYTE / NEUTROPHIL / NUCLEATED RED BLOOD CELLS / PLATELET COUNT / HEMOGLOBIN: tissue Blood
# [1] = 0 mg/kg, 72 h, dose level Control, time 3 day
# [2] = 0 mg/kg, 72 h, tissue Plasma, dose level Control, time 3 day
# [3] = 0 mg/kg, 120 h, dose level Control, time 5 day
# [4] = 0 mg/kg, 120 h, tissue Plasma, dose level Control, time 5 day
# [5] = 8 mg/kg, 72 h, dose level High, time 3 day
# [6] = 8 mg/kg, 72 h, tissue Plasma, dose level High, time 3 day
# [7] = 8 mg/kg, 120 h, dose level High, time 5 day
# [8] = 8 mg/kg, 120 h, tissue Plasma, dose level High, time 5 day
sequence,measurement,setting,value
OXALIPLATIN,ABSOLUTE BASOPHIL,[1],0 CELLS/uL
same,ABSOLUTE EOSINOPHIL,[1],0 CELLS/uL
same,ABSOLUTE LYMPHOCYTE,[1],7637.67 CELLS/uL
same,ABSOLUTE MONOCYTE,[1],67.83 CELLS/uL
same,ABSOLUTE SEGMENTED NEUTROPHIL,[1],661.17 CELLS/uL
same,BASOPHIL,[1],0%
same,EOSINOPHIL,[1],0%
same,ERYTHROCYTE COUNT,[1],5.38 x10E6/uL
same,HEMATOCRIT,[1],33.67%
same,LEUKOCYTE COUNT,[1],8.37 x10E3/uL
same,LYMPHOCYTE,[1],91.17%
same,MEAN CORPUSCULAR HEMOGLOBIN,[1],23.95 pg
same,MEAN CORPUSCULAR HEMOGLOBIN CONCENTRATION,[1],38.23 G/DL
same,MEAN CORPUSCULAR VOLUME,[1],62.6 fL
same,MONOCYTE,[1],0.83%
same,NEUTROPHIL,[1],8%
same,NUCLEATED RED BLOOD CELLS,[1],0.17 /100WBC
same,PLATELET COUNT,[1],865 x10E3/uL
same,ALANINE AMINOTRANSFERASE,[2],51.67 u/L
same,ALKALINE PHOSPHATASE,[2],351.17 u/L
same,ASPARTATE AMINOTRANSFERASE,[2],82.33 u/L
same,BLOOD UREA NITROGEN,[2],15.17 mg/dL
same,CARBON DIOXIDE,[2],34.5 mmol/L
same,CHLORIDE,[2],100 MEQ/L
same,CHOLESTEROL,[2],80.33 mg/dL
same,CREATINE PHOSPHOKINASE,[2],316.5 u/L
same,CREATININE,[2],0.17 mg/dL
same,LACTATE DEHYDROGENASE,[2],105.67 u/L
same,LIPASE,[2],9.5 u/L
same,PHOSPHORUS,[2],10.87 mg/dL
same,POTASSIUM,[2],5.47 MEQ/L
same,TOTAL BILIRUBIN,[2],0.2 mg/dL
same,TOTAL PROTEIN,[2],5.83 G/DL
same,URIC ACID,[2],0.83 mg/dL
same,ABSOLUTE BASOPHIL,[3],0 CELLS/uL
same,ABSOLUTE EOSINOPHIL,[3],0 CELLS/uL
same,ABSOLUTE LYMPHOCYTE,[3],6333.5 CELLS/uL
same,ABSOLUTE MONOCYTE,[3],38.83 CELLS/uL
same,ABSOLUTE SEGMENTED NEUTROPHIL,[3],661 CELLS/uL
same,BASOPHIL,[3],0%
same,EOSINOPHIL,[3],0%
same,ERYTHROCYTE COUNT,[3],5.44 x10E6/uL
same,HEMATOCRIT,[3],34.17%
same,HEMOGLOBIN,[3],13.22 G/DL
same,LEUKOCYTE COUNT,[3],7.03 x10E3/uL
same,LYMPHOCYTE,[3],90.17%
same,MEAN CORPUSCULAR HEMOGLOBIN,[3],24.38 pg
same,MEAN CORPUSCULAR HEMOGLOBIN CONCENTRATION,[3],38.7 G/DL
same,MEAN CORPUSCULAR VOLUME,[3],62.95 fL
same,MONOCYTE,[3],0.5%
same,NUCLEATED RED BLOOD CELLS,[3],0 /100WBC
same,PLATELET COUNT,[3],924.33 x10E3/uL
same,ALANINE AMINOTRANSFERASE,[4],52.5 u/L
same,ALKALINE PHOSPHATASE,[4],364.83 u/L
same,ASPARTATE AMINOTRANSFERASE,[4],82.5 u/L
same,BLOOD UREA NITROGEN,[4],17 mg/dL
same,CARBON DIOXIDE,[4],32.33 mmol/L
same,CHLORIDE,[4],99.6 MEQ/L
same,CHOLESTEROL,[4],75.83 mg/dL
same,CREATINE PHOSPHOKINASE,[4],419 u/L
same,CREATININE,[4],0.21 mg/dL
same,GLUCOSE,[4],155 mg/dL
same,LIPASE,[4],11.33 u/L
same,PHOSPHORUS,[4],10.32 mg/dL
same,POTASSIUM,[4],5.37 MEQ/L
same,TOTAL BILIRUBIN,[4],0.18 mg/dL
same,TOTAL PROTEIN,[4],5.98 G/DL
same,URIC ACID,[4],0.62 mg/dL
same,ABSOLUTE BASOPHIL,[5],0 CELLS/uL
same,ABSOLUTE EOSINOPHIL,[5],0 CELLS/uL
same,ABSOLUTE LYMPHOCYTE,[5],4377.33 CELLS/uL
same,ABSOLUTE MONOCYTE,[5],16.67 CELLS/uL
same,ABSOLUTE SEGMENTED NEUTROPHIL,[5],339.33 CELLS/uL
same,BASOPHIL,[5],0%
same,EOSINOPHIL,[5],0%
same,ERYTHROCYTE COUNT,[5],5.41 x10E6/uL
same,HEMATOCRIT,[5],33.23%
same,HEMOGLOBIN,[5],12.83 G/DL
same,LEUKOCYTE COUNT,[5],4.73 x10E3/uL
same,LYMPHOCYTE,[5],92.67%
same,MEAN CORPUSCULAR HEMOGLOBIN CONCENTRATION,[5],38.63 G/DL
same,MONOCYTE,[5],0.33%
same,NEUTROPHIL,[5],7%
same,NUCLEATED RED BLOOD CELLS,[5],0 /100WBC
same,PLATELET COUNT,[5],1068.33 x10E3/uL
same,ALANINE AMINOTRANSFERASE,[6],44.67 u/L
same,ALBUMIN,[6],4.3 G/DL
same,ALKALINE PHOSPHATASE,[6],356.33 u/L
same,ASPARTATE AMINOTRANSFERASE,[6],77.33 u/L
same,BLOOD UREA NITROGEN,[6],16.67 mg/dL
same,CARBON DIOXIDE,[6],34.33 mmol/L
same,CHLORIDE,[6],99 MEQ/L
same,CHOLESTEROL,[6],76 mg/dL
same,CREATINE PHOSPHOKINASE,[6],301 u/L
same,CREATININE,[6],0.12 mg/dL
same,LACTATE DEHYDROGENASE,[6],153.67 u/L
same,POTASSIUM,[6],5.69 MEQ/L
same,TOTAL BILIRUBIN,[6],0.2 mg/dL
same,TOTAL PROTEIN,[6],6.2 G/DL
same,URIC ACID,[6],0.67 mg/dL
same,ABSOLUTE BASOPHIL,[7],0 CELLS/uL
same,ABSOLUTE EOSINOPHIL,[7],0 CELLS/uL
same,ABSOLUTE LYMPHOCYTE,[7],3427.33 CELLS/uL
same,ABSOLUTE MONOCYTE,[7],20 CELLS/uL
same,ABSOLUTE SEGMENTED NEUTROPHIL,[7],186 CELLS/uL
same,BASOPHIL,[7],0%
same,EOSINOPHIL,[7],0%
same,ERYTHROCYTE COUNT,[7],5.56 x10E6/uL
same,HEMATOCRIT,[7],33.2%
same,HEMOGLOBIN,[7],12.67 G/DL
same,LEUKOCYTE COUNT,[7],3.63 x10E3/uL
same,LYMPHOCYTE,[7],93.33%
same,MEAN CORPUSCULAR HEMOGLOBIN,[7],22.77 pg
same,MEAN CORPUSCULAR HEMOGLOBIN CONCENTRATION,[7],38.17 G/DL
same,MONOCYTE,[7],0.67%
same,NEUTROPHIL,[7],6%
same,NUCLEATED RED BLOOD CELLS,[7],0.33 /100WBC
same,PLATELET COUNT,[7],976 x10E3/uL
same,ALANINE AMINOTRANSFERASE,[8],50 u/L
same,ALKALINE PHOSPHATASE,[8],285.67 u/L
same,ASPARTATE AMINOTRANSFERASE,[8],73.67 u/L
same,BLOOD UREA NITROGEN,[8],16.67 mg/dL
same,CARBON DIOXIDE,[8],33.67 mmol/L
same,CHLORIDE,[8],98 MEQ/L
same,CHOLESTEROL,[8],68.33 mg/dL
same,CREATINE PHOSPHOKINASE,[8],268.33 u/L
same,CREATININE,[8],0.16 mg/dL
same,GLUCOSE,[8],141 mg/dL
same,LACTATE DEHYDROGENASE,[8],86 u/L
same,LIPASE,[8],9 u/L
same,PHOSPHORUS,[8],9 mg/dL
same,POTASSIUM,[8],5.38 MEQ/L
same,TOTAL BILIRUBIN,[8],0.13 mg/dL
same,TOTAL PROTEIN,[8],6.33 G/DL
same,URIC ACID,[8],0.6 mg/dL
